Here are results for one molecule from US20040180812A1, “Methods of treating and preventing proliferative disease” (Technology Center, priority 2002, published 2004).

Read-outs that look alike come from different tables or passages of the source.

In experiment [1] the test system is A-549 non-small cell lung cancer cells. Description: Clonogenic assay. The conditions noted are these: 25, 50, 100 μM, four hours exposure. Type of experiment: cell-based. The method, then: (§1) U-87 glioblastoma cells and A-549 non-small cell lung cancer cells (American Type Culture Collection) were maintained in alpha MEM (Sigma) with 10% fetal bovine serum (Atlanta Biologicals). Tumor cell lines were expanded as a monolayer culture by serial passage on tissue culture plates in tumor media (alpha MEM with 10% fetal bovine serum).
(§2) The effect of clopidogrel and Aggrenox™ on U-87 and A-549 survival was determined by preparing single cell suspensions from each cell culture. The cells were subjected to three concentrations of each drug (25, 50, or 100 μM) for four hours in medium. The suspensions were serially diluted with medium. The cells were then seeded in triplicate in 50 mm flasks. After 6 to 14 days of incubation, the cultures were stained with crystal violet and counted.

The subject of experiment [2] is U-87 glioblastoma cells. Description: In-vitro determination of proliferation (Coulter counter). Type of experiment: cell-based, human. How it is done: as §1
(§3) The cell doubling time was determined for both U-87 and A-549 tumor cells. A total of 1×10^6 Cells from resting culture were seeded in 50 mm flasks with medium and allowed to adhere for approximately Three hours. Clopidogrel and Aggrenox™ were then added in concentrations of 25, 50, or 100 μM. After further incubation for four hours, controls and treated dishes were trypsinized and counted in a Coulter Counter ZM. This count served as the starting count for proliferation and confirmed similar cell adhesion in each series. Cells were then counted every 24 hours for a total of 96 hours.

Experiment [3] has as its system A-549 non-small cell lung cancer cells. The experiment is described as above. Type of experiment: cell-based. The method, then:
as §1, §3

The test system of experiment [4] is human U87 gliobastoma tumor xenografts. How it is done:
Glioblastoma cell line U-87 (ATCC) was cultured in 150 cm^2 polystyrene flasks (Fisher cat. no. 355001) in Alpha MEM media (Cellgro® cat. no. 15-012-CV) supplemented with 10% FBS, 1× non essential amino acids (Cellgro® cat. no. 25-025-Cl), 0.1% glucose (Sigma® cat. no. G8644), 2 mM L-glutamine (Gibco BRL® cat. no. 25030-081) and 0.2% sodium bicarbonate (Cellgro® cat. no. 25-035-Cl) to sub-confluence (80%). Prior to cell dissociation, the culture was washed once with 1×PBS (Bio Whittaker® cat. no. 16-006Y) and dissociated with trypsin free Cellstripper™ (Cellgro® cat. no. 25-056-Cl). Suspended cells were counted using the model Z1 Coulter® particle counter.
Male mice (NCR-NU-M, Taconic®), 3-5 weeks old, were anesthetized with 0.2 mls Nembutal® (10 mg/ml in sterile water) subcutaneous in the back of the neck. Once anesthetized, each mouse was injected subcutaneous with 5×10^5 cells/0.2 ml in the right hind flank. Tumors were allowed to grow to 60 mm^3 prior to treatment. Tumor volume was calculated by the following formula from orthogonal measurements using Fisher Scientific® electronic digital calipers. [formula]
Tumors were allowed to grow to a final volume of 2000 mm^3 where upon the treatment was terminated and the mice were sacrificed using a CO2 gas chamber.
Treatment groups were evaluated for tumor growth delay. A 60 mg/kg/day solution of Plavix® (clopidogrel bisulfate) was prepared by crushing and dissolving 75 mg tablets in water (pH 1.0). The solute was filtered through a Nalgene® filtration unit (cat. no. 126-0020) and the pH raised to 1.78. Mice were gavaged daily with 0.2 ml solution of Plavix® and vehicle controls were gavaged daily with 0.2 ml acidified water pH 1.78.
Prior to X-ray irradiation, mice were anesthetized with […] Ketamine HCl (Ketaset III®, Fort Dodge®) and […] Acepromazine Maleate (Phoenix pharmaceutical, Inc.) by subcutaneous injection in the back to the neck. Tumors on the right hind leg were exposed to 7.5 Gy three times on alternate days for one week using a Pantek X-ray irradiator.

Experiment [5] deals with U-87 glioblastoma cells. Description: Clonogenic assay. Type of experiment: cell-based, human. The conditions noted are these: 25, 50, 100 μM, four hours exposure. The method, then:
as §1, §2

For the next experiment, the system named is U-87 tumor. How it is done: In order to evaluate the effect of clopidogrel on U-87 tumor growth rate, U-87 cell suspension was injected subcutaneously into the right hind limb (5×10^5 cells in 50 μl PBS) of athymic NCR NUM mice (Taconic Farms). The clopidogrel was added to the drinking water in concentrations of 0.135 (low), 0.180 (intermediate) or 0.225 mg/ml (high). This was equivalent to an oral dose of approximately 15, 20, or 25 mg/kg/day. Mice were not pretreated prior to tumor implantation. The mice were randomized to five groups (control, low, intermediate and high concentration and non-solubilized drug) with five mice per group.
U-87 tumors were allowed to grow for approximately 10-14 days until reaching an approximate volume of 40-85 mm^3, before treatment. Tumor volume was determined daily by direct measurement with calipers and calculated by the formula [(smallest diameter^2×widest diameter)/2]. Daily weights were obtained.
Polynomial regression lines were fit to the data for each individual mouse for 20-24 days. Means were taken at two-day intervals for mice in each group.
U-87 cells were inoculated into the right hind limb of athymic NCR NUM mice. […] U-87 tumors were allowed to grow for approximately 10-14 days until reaching an approximate volume of 40-85 mm^3, before treatment. Clopidogrel was added to the drinking water in concentrations of 0.135 (low), 0.180 (intermediate) or 0.225 mg/ml (high). This was equivalent to an oral dose of approximately 15, 20, or 25 mg/kg/day. Tumor dimensions and animal weights were taken daily.

Where [6] appears, read: highest concentration 100 μM, counted every 24 h for 96 h.

`COC(=O)[C@H](c1ccccc1Cl)N1CCc2sccc2C1` [clopidogrel, clopidogrel bisulfate]: in experiment [1], the “A-549 clonogenic cell survival compared with Aggrenox results” value is “exaggerated”. For the same molecule, the “proliferation of U-87 cells” value in the experiment with U-87 glioblastoma cells [2] (setting [6]) is on record as “considerably inhibited”. Besides, the “cell proliferation (U-87)” value in the experiment with U-87 glioblastoma cells [2] (lowest concentration (25 μM)) is listed as “did not significantly affect cell proliferation”. Moreover, in experiment [3] (setting [6]), the A-549 cell proliferation entry is given as “even more drastically inhibited”. The “cell proliferation (A-549)” value in experiment [3] (lowest concentration (25 μM)) was “did not significantly affect cell proliferation”. Also, the “Tumor growth Delay (Experiment 1)” value in experiment [4] (Plavix alone) is on record as 5 days. For the same molecule, the entries for the “Tumor growth Delay (Experiment 2)” value in experiment [4] (Plavix alone) and in experiment [4] (Radiation plus Plavix) were 5 days and 16 days, respectively. Further, the “tumor growth delay (TGD)” value in experiment [4] (Plavix alone, 60 mg/kg/day gavage) was 5 days; in experiment [4] (radiation (7.5 Gy three times) and Plavix 60 mg/kg/day combined) it was 16 days. In addition, the “TGD more than radiation alone” value in experiment [4] (radiation and Plavix combined versus radiation alone) is on record as 4 days. Also, the “U-87 clonogenic cell survival compared with Aggrenox results” value in the experiment with U-87 glioblastoma cells [5] was “exaggerated”. Besides, in the experiment with U-87 tumor (0.135, 0.180, 0.225 mg/ml in drinking water), the “dose response of tumor growth delay” value is “A dose response was noted”. In addition, the tumor growth delay result with U-87 tumor (highest concentration 0.225 mg/ml in drinking water, approx. 25 mg/kg/day oral) is recorded as “much more dramatic”; in the experiment with U-87 tumor (lowest concentration 0.135 mg/ml in drinking water, approx. 15 mg/kg/day oral), “small growth delay”.
